Source: patent publication US20230339878A1, “SLC26A3 INHIBITORS AND USE THEREOF” (THE REGENTS OF THE UNIVERSITY OF CALIFORNIA, priority 2018, published 2023)
Entries after “also recorded” stand apart in the source; their conditions may differ. Read-outs that look alike come from different tables or passages of the source.

Experiments:
murine slc26a3 = target: T1, murine slc26a3 (Mus musculus, UniProt Q9WVC8); test: slc26a3-mediated Cl-/I- exchange, YFP fluorescence quenching in FRT-YFP-slc26a3 cells; format: cell-based
T1 construct: host or cells: Fischer rat thyroid (FRT) cells expressing YFP, clonal line FRT-YFP-slc26a3
T1 sequence (Q9WVC8 1-757): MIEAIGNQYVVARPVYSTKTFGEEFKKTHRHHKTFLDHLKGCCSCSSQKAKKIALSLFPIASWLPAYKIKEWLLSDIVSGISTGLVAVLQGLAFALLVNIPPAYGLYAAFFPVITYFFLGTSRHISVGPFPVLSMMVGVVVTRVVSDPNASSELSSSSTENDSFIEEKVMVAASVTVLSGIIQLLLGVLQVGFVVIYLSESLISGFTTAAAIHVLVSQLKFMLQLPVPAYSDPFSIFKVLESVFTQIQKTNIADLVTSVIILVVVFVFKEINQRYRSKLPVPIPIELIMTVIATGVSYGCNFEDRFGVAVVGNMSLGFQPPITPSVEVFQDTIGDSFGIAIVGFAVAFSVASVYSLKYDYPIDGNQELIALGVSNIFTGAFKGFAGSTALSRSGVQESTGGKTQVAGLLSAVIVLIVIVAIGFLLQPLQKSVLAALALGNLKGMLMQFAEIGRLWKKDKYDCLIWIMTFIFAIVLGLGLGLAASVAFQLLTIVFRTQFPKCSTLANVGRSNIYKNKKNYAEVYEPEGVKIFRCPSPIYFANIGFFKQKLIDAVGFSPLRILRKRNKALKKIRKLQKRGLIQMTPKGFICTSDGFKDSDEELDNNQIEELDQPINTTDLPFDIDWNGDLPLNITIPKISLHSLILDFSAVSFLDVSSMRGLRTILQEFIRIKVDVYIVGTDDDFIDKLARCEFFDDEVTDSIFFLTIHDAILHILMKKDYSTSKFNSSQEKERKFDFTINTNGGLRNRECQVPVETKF
Description: High-throughput screening to identify slc26a3 inhibitors using FRT-YFP- slc26a3 cells was done with a semi-automated Beckman Coulter (Indianapolis, IN) platform with FLUOstar OMEGA plate readers (BMG Labtech, Cary, NC), essentially as described for discovery of pendrin inhibitors. Initial screening was done of ~50,000 drug-like synthetic small molecules (ChemDiv, San Diego, CA) at a concentration of 25 µM using a Cl^-/I^- exchange protocol to assay slc26a3 function. Following initial screening, compound analogs were purchased (ChemDiv, San Diego, CA) to generate structure-activity data.
For the screening, FRT-YFP-slc26a3 cells were plated in 96-well black-walled, clear-bottom tissue culture plates (Corning Life Sciences, Tewksbury, MA) at a density of 20,000 cells/well and cultured for 48 hours until confluent. For screening, cells were washed twice in PBS and incubated for 10 min in 100 µl PBS containing test compounds prior to assay of slc26a3 function. Assays were done using a FLUOstar OMEGA plate reader (BMG Labtech, Cary, NC) over 12 s with initial fluorescence recorded over 1 s prior to addition of 100 µl NaI-substituted PBS (137 mM NaCl replaced by 137 mM NaI) to drive Cl^-/I^- exchange. The initial rate of Cl^-/I^- exchange was determined from fluorescence intensity by single exponential regression. All plates contained wells with negative (1 % DMSO) and positive (350 µM niflumic acid) controls.
Screening was done using an FRT cell line stably expressing murine slc26a3 and a halide-sensitive yellow fluorescent protein (FRT-YFP- slc26a3 cells). FRT cells were used because of their low intrinsic permeability to anions that are transported by slc26a3, and because of their good adherence and rapid growth on uncoated plastic. As diagrammed in FIG. 1A, slc26a3-mediated transport was assayed from the kinetics of YFP fluorescence quenching in response to extracellular addition of I^- to drive Cl^-/I^- exchange; transport inhibition reduces the rate of fluorescence decrease.

[1] = system: loperamide-treated wild-type mice; test: Loperamide-induced constipation model in wild-type mice; format: in vivo
Description: Female CD1 mice (age 8-10 weeks) were administered loperamide (0.3 mg/kg, intraperitoneally, Sigma-Aldrich) to produce constipation. Compound A1 (DRAinh-A250) (5 mg/kg, in saline containing vehicle (5% DMSO and 10% Kolliphor HS 15; Sigma-Aldrich)), tenapanor (5 mg/kg, in vehicle), both compounds (5 mg/kg each, in vehicle), or vehicle alone were administered by oral gavage 1 hour before loperamide. After loperamide injection, mice were placed individually in metabolic cages with ad libitum access to food and water. Stool samples were collected for 3 h, and total stool weight and number of fecal pellets were quantified. To measure stool water content, stool samples were dried at 80° C. for 24 h and water content was calculated as [wet weight-dry weight]/wet weight. Similar studies were done in cystic fibrosis (CF) mice (ΔF508 homozygous) lacking functional CFTR.
Constipation Model in MiceDRAinh-A260 and DRAinh-A270 were tested in a loperamide-induced constipation model in mice. Female CD1 mice (age 8-10 weeks) were administered loperamide (0.3 mg/kg, intraperitoneally, in 5% ethanol in PBS, 0.1 mg/mL final concentration) to produce constipation and vehicle in control mice. DRAinh-A260 (5 mg/kg, in saline with 5% DMSO and 10% Kolliphor HS 15) or DRAinh-A270 (1, 3 or 10 mg/kg, in PBS with 5% DMSO and 20% (2- hydroxypropyl)-β-cyclodextrin) or vehicle alone were administered by oral gavage 1 hour before loperamide (FIG. 11A). After loperamide injection, mice were placed individually in metabolic cages with free access to food and water. Stool samples were collected for 3 hours, and total stool weight and number of fecal pellets were quantified. To measure stool water content, stool samples were dried at 80° C. for 24 hours and water content was calculated as [wet weight-dry weight]/wet weight.

[2] = system: oxalate nephropathy model in mice; test: Oxalate nephropathy model induced by high oxalate diet; format: in vivo
Description: To induce oxalate nephropathy, mice were fed with high oxalate (0.67%) and low calcium (<0.01%) diet as described (Am J Physiol Renal Physiol 310: F785-F795, 2016). […] Mice were started high oxalate diet at Day 0 and treated with Compound A1 (5 mg/kg) or vehicle by oral gavage twice daily starting at Day 0. At Day 14, urine was collected for 24 hours in metabolic cages and centrifuged to examine urine sediment, then mice were euthanized and kidneys were used for histological analysis.
The kidneys harvested at Day 14 were examined for kidney damage using H & E staining, and for crystal deposition using polarized light microscopy.
Similar experiments in oxalate nephropathy model were performed using DRAinh-A270. For these experiments mice had 3-hour urine collections at Day 0, 7 and 14. High oxalate diet was started on Day 0 after initial urine collection and mice were given DRAinh-A270 or vehicle intraperitoneally twice daily for 14 days.

[3] = 5 mg/kg oral twice daily, Day 14

Structure (SMILES): Cc1c(CC(=O)O)c(=O)oc2c(C)c(OCc3cccc(Br)c3)ccc12 [Compound A1]
- reversibility of inhibition (murine slc26a3; 1 µM for 10 min, then washed three times): full reversibility; also recorded: fully and reversibly inhibited
- IC50 (murine slc26a3; selected class A analogs, Table 1, Cl-/I- exchange, read-out: IC50): 0.15 µM
- IC50 (murine slc26a3; summary statement, read-out: IC50 for inhibition of SLC26A3-mediated anion exchange): 0.1 to 0.2 µM
- three-hour stool weight, number of pellets and stool water content ([1]; 5 mg/kg oral gavage 1 hour before loperamide, wild-type mice): partially prevented; also recorded: comparably reduced signs of constipation; also recorded: reduces loperamide-induced constipation
- insoluble urine sediment [2, 3]: greatly reduced; also recorded: greatly reduces urine sediment
- kidney damage, H & E staining [2, 3]: prevention of kidney damage; also recorded: prevents renal damage
- renal crystal deposition, polarized light microscopy [2, 3]: prevention of crystal deposition; also recorded: prevents renal crystal deposition

Structure (SMILES): Cc1c(CC(=O)O)c(=O)oc2c(C)c(OCc3cccc(I)c3)ccc12 [DRAinh-A270]
- potency compared to Compound A1 (DRAinh-A250) (murine slc26a3; FIG. 9): four-fold improved potency
- IC50 (murine slc26a3; FIG. 9 concentration-inhibition curves, read-out: IC50 for slc26a3-mediated Cl-/I- exchange): ~0.05 µM
- IC50 (murine slc26a3; representative Class A compounds, Table 3, read-out: IC50): 0.04 µM
- stool parameters / diarrhea in control mice ([1]; 10 mg/kg oral, mice not treated with loperamide): did not affect stool parameters or cause diarrhea
- stool weight, pellet number and water content, dose-dependence ([1]; 1, 3 or 10 mg/kg oral gavage 1 hour before loperamide): dose-dependence in normalizing stool weight and pellet number, and water content; also recorded: normalizes stool water content even at low doses
- development of renal failure ([2]; intraperitoneally twice daily for 14 days): prevents development of renal failure; also recorded: prevents weight loss, hyperoxaluria and renal failure
- body weight change compared to Day 0 ([2]; intraperitoneally twice daily for 14 days, Day 7 and Day 14): maintained their weight better; also recorded: prevents weight loss, hyperoxaluria and renal failure
- 3-hour urine oxalate / creatinine ratio ([2]; intraperitoneally twice daily, Day 7 vs Day 0): largely prevented development of hyperoxaluria; also recorded: prevents weight loss, hyperoxaluria and renal failure
- serum creatinine ([2]; intraperitoneally twice daily, Day 14): normal serum creatinine
